Source: patent publication US20060234977A1, “Antiviral compostion comprising a sulphated glucose polymer and a bacteriostatic agent” (priority 2003, published 2006)

Legend:
HIV = test: Activity against HIV and other sexually transmitted diseases; details: by comparison with dextrin 2- and 6-sulphates

For Dextrin 3-sulphate [Example 1], the “activity against HIV and other sexually transmitted diseases (STDs)” value (HIV) was “relatively poor activity”.

With dextrin sulphate the spermicidal activity (Spermicidal activity) was “little or no spermicidal activity”.
